The structures appear in SMILES notation. ≈ marks a conversion by molar mass, not a printed value.

The test system of assay [1] is yeast α-glucosidase from Saccharomyces cerevisiae. In words: α-glucosidase inhibitory effect (pNPG, AUC of absorbance at 405 nm). In kind it is biochemical. To be noted: for IC50 α-Glucosidase: mean ± SD of three repeated tests, logarithmic regression; for Inhibitory effects α-glucosidase (acarbose equivalents): converted into acarbose equivalents. How it is done: (§1) All solvents (analytical grade) were bought from Beijing Chemical Factory, and purified water was from a mili-Q system (Millipore, Billerica, MA).
α-Glucosidase inhibitory effect was assayed as reported by Zhang et al.. […] Then, 30 μL pNPG solution (2 mM pNPG in 0.1 mM phosphate buffer) was added quickly to initiate the enzyme reaction. Absorbance was monitored at 405 nm every 15 min for 2 h using a microplate reader (Tecan infinite 200, Swiss).

Assay [2] addresses T1, porcine pancreatic α-amylase (Sus scrofa, UniProt P00690).
T1 construct: purchased Sigma-Aldrich Co. (St. Louis, MO, USA)
T1 sequence (P00690 16-511): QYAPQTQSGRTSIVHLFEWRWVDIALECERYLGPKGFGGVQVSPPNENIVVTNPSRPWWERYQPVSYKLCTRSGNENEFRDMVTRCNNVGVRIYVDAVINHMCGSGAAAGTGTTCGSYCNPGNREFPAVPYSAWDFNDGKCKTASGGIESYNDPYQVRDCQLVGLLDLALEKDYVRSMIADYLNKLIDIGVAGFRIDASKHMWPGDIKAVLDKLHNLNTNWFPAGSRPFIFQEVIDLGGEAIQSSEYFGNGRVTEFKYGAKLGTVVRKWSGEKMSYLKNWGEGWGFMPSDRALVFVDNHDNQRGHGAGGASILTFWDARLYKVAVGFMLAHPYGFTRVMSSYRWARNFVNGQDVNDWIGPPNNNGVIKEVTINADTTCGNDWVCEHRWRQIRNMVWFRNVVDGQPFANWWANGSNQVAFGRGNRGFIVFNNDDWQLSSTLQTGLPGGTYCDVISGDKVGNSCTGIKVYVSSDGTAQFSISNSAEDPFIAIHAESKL
Description: α-amylase inhibitory effect (starch, dinitrosalicylic acid, 540 nm). In kind it is biochemical. To be noted: for Contribution to the overall enzyme inhibitory effect of the extract, α-amylase: Contribution = [Ei/E0] × C × 100; for Inhibitory effects α-amylase (acarbose equivalents): converted into acarbose equivalents; for IC50: mean ± SD of three repeated tests, logarithmic regression. The procedure:
as §1
After incubation for 20 min at 37 °C, 300 μL starch solution (1%) in sodium phosphate buffer (0.02 M, pH 6.9 with 6 mM NaCl) was added, and the mixture was re-incubated for 20 min, followed by addition of 0.2 mL dinitrosalicylic acid. The new mixture was then boiled for 5 min and cooled to room temperature. Cooled mixture was diluted by adding 10 mL distilled water, and absorbance was measured at 540 nm using a UV–visible spectrophotometer (Shimadzu UV-1700, Japan). […] IC50 values were calculated by the logarithmic regression analysis.

In assay [3] the test system is α-glucosidase enzyme. The arrangement: method as in doi:10.1007/978-3-642-73461-8_2. To be noted: cited from earlier work.

One may read the inhibition as the change of the read-out against control, counted positive when it falls. For `C[C@H]1O[C@H](O[C@H]2[C@H](O)[C@@H](O)[C@@H](O[C@H]3[C@H](O)[C@@H](O)C(O)O[C@@H]3CO)O[C@@H]2CO)[C@H](O)[C@@H](O)[C@@H]1N[C@H]1C=C(CO)[C@@H](O)[C@H](O)[C@H]1O` (stereo partly drawn) [Acarbose, acarbose, reference compound], the “final inhibitory effect against α-glucosidase” value in assay [1] (at 2 mg/mL) is recorded as 68.66%. Moreover, in assay [1], the “IC50 α-Glucosidase” value worked out at 996.02 ± 21.34 µg/mL (≈ 1540 µM). In assay [2] (read-out: inhibition of α-amylase), the inhibition at 2000 µg/mL was determined as 69.9%. The “affinity exceeding that of the normal substrate, factor” value in assay [3] was 10^4–10^5.
By IC50 is commonly meant the concentration at which inhibition is half-maximal. Lower therefore signals greater potency in that assay. With `O=C(O)[C@H]1O[C@@H](Oc2cc(O)c3c(=O)cc(-c4ccc(O)cc4)oc3c2)[C@H](O)[C@@H](O)[C@@H]1O` [Apigenin-7-O-G, apigenin-7-O-glucuronide], in assay [1], the “Inhibitory effects α-glucosidase (acarbose equivalents)” value (“Inhibitory effects α-glucosidase” below) is listed as 1.83 ± 0.02 μg acarbose/μg and the “IC50 α-Glucosidase” value is 543.28 ± 11.41 µg/mL (≈ 1220 µM). In assay [2], the “Contribution to the overall enzyme inhibitory effect of the extract, α-amylase” value is listed as 2.74 ± 0.09%; the “Inhibitory effects α-amylase (acarbose equivalents)” value (from here on “Inhibitory effects α-amylase”) was 1.04 ± 0.01 μg acarbose/μg; the IC50 is 1470 µM.
For the molecule `O=c1cc(-c2ccc(O)cc2)oc2cc(O)cc(O)c12` [Apigenin], in assay [1], the “Inhibitory effects α-glucosidase” value is 4.31 ± 0.08 μg acarbose/μg and the “IC50 α-Glucosidase” value stood at 231.13 ± 5.35 µg/mL (≈ 855 µM).
Consider `O=c1cc(-c2ccccc2)oc2cc(O)c(O)c(O)c12` [Baicalein, baicalein], for which, in assay [1], the “Inhibitory effects α-glucosidase” value was 3.58 ± 0.07 μg acarbose/μg and the “IC50 α-Glucosidase” value stood at 277.94 ± 6.21 µg/mL (≈ 1030 µM). In addition, in assay [2], the “Contribution to the overall enzyme inhibitory effect of the extract, α-amylase” value is 23.37 ± 0.98%; the “Inhibitory effects α-amylase” value amounted to 2.07 ± 0.02 μg acarbose/μg; the half-maximal inhibitory concentration (IC50) was 1240 µM.
For `O=C(O)[C@H]1O[C@@H](Oc2cc3oc(-c4ccccc4)cc(=O)c3c(O)c2O)[C@H](O)[C@@H](O)[C@@H]1O` [Baicalin, baicalin], in assay [1], the “Inhibitory effects α-glucosidase” value is given as 1.68 ± 0.02 μg acarbose/μg and the “IC50 α-Glucosidase” value was 591.58 ± 12.21 µg/mL (≈ 1330 µM). Moreover, in assay [2], the “Contribution to the overall enzyme inhibitory effect of the extract, α-amylase” value stood at 4.95 ± 0.13%; the “Inhibitory effects α-amylase” value is 1.03 ± 0.01 μg acarbose/μg; 1480 µM corresponded to half-maximal inhibition (IC50).
With `O=c1cc(-c2ccccc2)oc2cc(O)cc(O)c12` [Chrysin, chrysin], in assay [1], the “Inhibitory effects α-glucosidase” value stood at 2.36 ± 0.03 μg acarbose/μg and the “IC50 α-Glucosidase” value amounted to 422.67 ± 9.37 µg/mL (≈ 1660 µM). Further, in assay [2], the “Contribution to the overall enzyme inhibitory effect of the extract, α-amylase” value worked out at 6.91 ± 0.21%; the “Inhibitory effects α-amylase” value came out at 1.51 ± 0.02 μg acarbose/μg; half-maximal inhibition (IC50) was put at 1770 µM.
In the case of `O=C(O)[C@H]1O[C@@H](Oc2cc(O)c3c(=O)cc(-c4ccccc4)oc3c2)[C@H](O)[C@@H](O)[C@@H]1O` [Chrysin-7-O-G, chrysin-7-O-glucuronide], in assay [1], the “Inhibitory effects α-glucosidase” value came out at 1.63 ± 0.01 μg acarbose/μg and the “IC50 α-Glucosidase” value came out at 612.13 ± 15.34 µg/mL (≈ 1420 µM). Moreover, in assay [2], the “Contribution to the overall enzyme inhibitory effect of the extract, α-amylase” value was found to be 2.63 ± 0.07%; the “Inhibitory effects α-amylase” value is 0.69 ± 0.01 μg acarbose/μg; 2280 µM corresponded to half-maximal inhibition (IC50).
As to `O=C(O)[C@H]1O[C@@H](Oc2cc3oc(-c4ccc(O)cc4)cc(=O)c3c(O)c2O)[C@H](O)[C@@H](O)[C@@H]1O` [Scutellarin, scutellarin], in assay [1], the “Inhibitory effects α-glucosidase” value worked out at 3.18 ± 0.06 μg acarbose/μg and the “IC50 α-Glucosidase” value came to 313.25 ± 7.28 µg/mL (≈ 677 µM). In assay [2], the “Contribution to the overall enzyme inhibitory effect of the extract, α-amylase” value was 14.80 ± 0.66%; the “Inhibitory effects α-amylase” value is on record as 1.84 ± 0.02 μg acarbose/μg; the midpoint of inhibition, the IC50, lay at 799 µM.

The values are drawn from PMC6042199, “Inhibitory effects against α-glucosidase and α-amylase of the flavonoids-rich extract from Scutellaria baicalensis shoots and interpretation of structure–activity relationship of its eight flavonoids by a refined assign-score method” (Chemistry Central Journal, 2018).
